Experimental findings from ChEMBL document CHEMBL3132788, “A new route towards fimbrolide analogues: importance of the exomethylene motif in LuxR dependent quorum sensing inhibition” (Medchemcomm, 2013) are described below.

SMILES strings stand for the structures. Calls of active or inactive are those of the source. The calls are words filed in the database; no cut-off is given here.

Series [1] is described as follows: (§1) Antagonist activity at quorum sensing system in Escherichia coli NM522 carrying Vibrio fischeri luxR and luxICDBE promoter region assessed as inhibition of 3-oxo-C6HSL induced bioluminescence production after 4 to 5 hrs by luminometer.
In series [2] the test system is Escherichia coli. Briefly: Agonist activity at quorum sensing system in Escherichia coli NM522 carrying Vibrio fischeri luxR and luxICDBE promoter region assessed as bioluminescence production after 4 to 5 hrs by luminometer.
Series [3] concerns Escherichia coli. The description is as §1.
Series [4] relates to Escherichia coli. Briefly: Growth inhibition of Escherichia coli NM522 carrying Vibrio fischeri luxR and luxICDBE promoter region at 20 uM to 20 mM after overnight incubation by disk diffusion assay. Type of series: organism-based. The settings on record: in vivo.

Take `CCCCCCC1=C/C(=C/Br)OC1=O`: the IC50 in series [1] turned out to be 3 µM. Also, the outcome in series [2] was inactive.

For the molecule `CCCC(O)C1=C/C(=C\Br)OC1=O` (centres undefined), the IC50 in series [1] amounted to 18 µM. In series [2], the result was inactive.

For the molecule `CCCCCCCC(O)C1=CCOC1=O` (centres undefined), the inhibition result in series [3] was “inactive”. The outcome in series [2] was inactive.

For `CCCCC1=C/C(=C/Br)OC1=O`, the Activity entry in series [4] is recorded as “Non-toxic”. The IC50 in series [1] amounted to 0.6 µM. Further, the result in series [2] was inactive.

As to `CCCCC1=C(Br)/C(=C/Br)OC1=O`, the IC50 in series [1] was 45 µM.

As to `CCCC(O)C1=CCOC1=O` (centres undefined), in series [3], the inhibition entry is “inactive”. In addition, in series [2], the result was inactive.

As to `C=C1C=C(C(O)CCCCC)C(=O)O1` (centres undefined), in series [1], the IC50 came to 8 µM. For the same molecule, the outcome in series [2] was inactive.

For `CCCCCCCC(O)C1=C/C(=C/Br)OC1=O` (centres undefined), in series [1], the IC50 was determined as 25 µM. The result in series [2] was inactive.

Take `CCCCCC(O)C1=CCOC1=O` (centres undefined): the inhibition entry in series [3] is “inactive”. The outcome in series [2] was inactive.

Regarding `C=C1C=C(C(O)CCC)C(=O)O1` (centres undefined), in series [1], the IC50 turned out to be 52 µM. Further, in series [2], the result was inactive.

In the case of `CCCC(O)C1=C/C(=C/Br)OC1=O` (centres undefined), the IC50 in series [1] was determined as 14 µM. The outcome in series [2] was inactive.

As for `CCCCC1=CCOC1=O`, the IC50 in series [1] is over 200 µM. Also, the outcome in series [2] was inactive.

Regarding `C=C1C=C(CCCCCC)C(=O)O1`, the IC50 in series [1] is over 200 µM. Besides, in series [2], the outcome was inactive.

In the case of `CCCCCC(O)C1=C/C(=C/Br)OC1=O` (centres undefined), the IC50 in series [1] came to 6 µM. Moreover, the result in series [2] was inactive.

As for `C=C1C=C(CCCC)C(=O)O1`, the IC50 in series [1] was over 200 µM. Besides, the result in series [2] was inactive.

For `CCCCCCC1=CCOC1=O`, the IC50 in series [1] was over 200 µM. Also, the result in series [2] was inactive.

On to `C=C1C=C(C(O)CCCCCCC)C(=O)O1` (centres undefined), for which the IC50 in series [1] amounted to 15 µM. For the same molecule, the outcome in series [2] was inactive.

Broadly, the IC50 is the midpoint of a concentration-inhibition curve.
